Results as given in patent publication US20060183922A1, “CB2-selective cannabinoid derivatives” (priority 2005, published 2006).
“Also recorded” adds a separate entry of the source.

Legend:
CB1 receptor = target: T1, CB1 receptor (Rattus norvegicus, UniProt P20272); assay: CB1 receptor binding assay, [3H]CP-55,940 displacement, whole brain P2 membranes
T1 construct: except whole brain (rather than cortex only) was used; from tissue; host or cells: whole brain P2 membranes
Description: 1. CB1 Assay. [^3H] […] Displacement curves were generated by incubating drugs with 1 nM of [^3H] CP-55,940. The assays were performed in triplicate, and the results represent the combined data from three individual experiments.
CP-55,940 and all cannabinoid analogs were prepared by suspension in assay buffer from a 1 mg/mL ethanolic stock without evaporation of the ethanol (final concentration of no more than 0.4%). […] Displacement IC50 values were originally determined by unweighted least-squares linear regression of log concentration-percent displacement data and then converted to Ki values using the method of Cheng and Prusoff(Cheng, Y. C.; Prusoff, W. H. Biochem. Pharmacol. 1973, 22, 3099.)

[1] = target: T2, human CB2 receptor (transfected human embryonic kidney 293 cells) (Homo sapiens, UniProt P34972); assay: CB2 receptor binding assay, [3H]CP-55,940 displacement; conditions: for Fold selectivity for CB2 over CB1: ratio of CB1 to CB2 affinity
T2 construct: expressed in transfected cells
T2 sequence (P34972 whole entry): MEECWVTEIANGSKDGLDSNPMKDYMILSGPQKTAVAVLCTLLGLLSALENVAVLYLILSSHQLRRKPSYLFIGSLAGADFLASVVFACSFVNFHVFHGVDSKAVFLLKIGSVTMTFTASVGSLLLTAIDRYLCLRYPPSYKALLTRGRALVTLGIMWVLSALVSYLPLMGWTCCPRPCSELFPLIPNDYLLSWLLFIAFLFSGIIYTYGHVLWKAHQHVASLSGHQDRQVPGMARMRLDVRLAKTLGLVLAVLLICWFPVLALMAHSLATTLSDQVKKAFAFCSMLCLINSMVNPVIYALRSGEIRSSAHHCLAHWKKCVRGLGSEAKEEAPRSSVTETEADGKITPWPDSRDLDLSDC
Description: 2. CB2 Assay. Human embryonic kidney 293 cells were maintained in Dulbecco's modified Eagle's medium (DMEM) with 10% fetal clone II (HyClone, Logan Utah) and 5% CO2 at 37° C. in a Forma incubator. Cell lines were created by transfection of CB2pcDNA3 into 293 cells by the Lipofectamine reagent (Life Technologies, Gaithersburg, Md.). The human CB2 cDNA was a gift. Stable transformants were selected in growth medium containing geneticin (1 mg/mL, reagent, Life Technologies, Gaithersburg, Md.). Colonies of about 500 cells were picked (about 2 weeks post transfection) and allowed to expand, then tested for expression of receptor mRNA by northern blot analysis. Cell lines containing moderate to high levels of receptor mRNA were tested for receptor binding properties. Transfected cell lines were maintained in DMEM with 10% fetal clone II plus 0.3-0.5 mg/mL geneticin and 5% CO2 at 37° C. in a Forma incubator.
The current assay is a modification of Compton et al. (Compton, D. R.; Rice, K. C.; De Costa, B. R.; Razdan, R. K.; Melvin, L. S.; Johnson, M. R.; Martin, B. R. J. Pharmacol Exp. Ther. 1993, 265, 218.) Cells were harvested in phosphate-buffered saline containing 1 mM EDTA and centrifuged at 500 g. The cell pellet was homogenized in 10 mL of solution A (50 mM Tris-HCl, 320 mM sucrose, 2 mM EDTA, 5 mM MgCl2, pH 7.4). The homogenate was centrifuged at 1,600×g (10 min), the supernatant saved, and the pellet washed three times in solution A with subsequent centrifugation. The combined supernatants were centrifuged at 100,000×g (60 min). The (P2 membrane) pellet was resuspended in 3 mL of buffer B (50 mM Tris-HCl, 1 mM EDTA, 3 mM MgCl2, pH 7.4) to yield a protein concentration of approximately 1 mg/mL. The tissue preparation was divided into equal aliquots, frozen on dry ice, and stored at −70° C. Binding was initiated by the addition of 40-50 μg membrane protein to silanized tubes containing [^3H]CP-55,940 (102.9 Ci/mmol) and a sufficient volume of buffer C (50 mM Tris-HCl, 1 mM EDTA, 3 mM MgCl2, and 5 mg/mL fatty acid free BSA, pH 7.4) to bring the total volume to 0.5 mL. The addition of 1 μM unlabelled CP-55,940 was used to assess nonspecific binding. Following incubation (30° C. for 1 hour), binding was terminated by the addition of 2 mL of ice cold buffer D (50 mM Tris-HCl, pH 7.4, plus 1 mg/mL BSA) and rapid vacuum filtration through Whatman GF/C filters (pretreated with polyethyleneimine (0.1%) for at least 2 hours). Tubes were rinsed with 2 mL of ice cold buffer D, which was also filtered, and the filters subsequently rinsed twice with 4 mL of ice cold buffer D. Before radioactivity was quantitated by liquid scintillation spectrometry, filters were shaken for 1 hr in 5 mL of scintillation fluid.
CP-55,940 and all cannabinoid analogs were prepared by suspension in assay buffer from a 1 mg/mL ethanolic stock without evaporation of the ethanol (final concentration of no more than 0.4%). Competition assays were conducted with 1 nM [^3H]-CP55,940 and 6 concentrations (0.1 nM to 10 μM displacing ligands). Displacement IC50 values were originally determined by unweighted least-squares linear regression of log concentration-percent displacement data and then converted to Ki values using the method of Cheng and Prusoff(Cheng, Y. C.; Prusoff, W. H. Biochem. Pharmacol. 1973, 22, 3099.)

[2] = system: formalin model of inflammatory pain; assay: Formalin model of inflammatory pain; format: in vivo; conditions: male ICR mice
Description: One of the above CB2 selective agonists was chosen for testing in the formalin model of inflammatory pain in mice. Subjects consisted of male ICR mice (Harlan Labs) weighing between 20-25 g. The formalin test was carried out in an open Plexiglas cage, with a mirror placed under the floor to allow an unobstructed view of the paws. Mice were allowed to acclimate for 15 min in the test cage before formalin injection. Each animal was injected with 20 μl of 2.5% formalin in the intraplantar region of the right hindpaw. Mice were then observed 0-5 min (Phase 1) and 20-45 min (Phase 2) post-formalin, and the amount of time spent licking the injected paw was recorded. The drug was injected i.p. 30 min before formalin injection.

CB2 receptor = CB2 receptor (Homo sapiens, UniProt P34972); conditions: read-out: Ki for the CB2 receptor; Huffman et al., Biorg. Med. Chem. 1999; cited from earlier work
Sequence of CB2 receptor (P34972 whole entry): as above

T1 sequence (P20272 whole entry): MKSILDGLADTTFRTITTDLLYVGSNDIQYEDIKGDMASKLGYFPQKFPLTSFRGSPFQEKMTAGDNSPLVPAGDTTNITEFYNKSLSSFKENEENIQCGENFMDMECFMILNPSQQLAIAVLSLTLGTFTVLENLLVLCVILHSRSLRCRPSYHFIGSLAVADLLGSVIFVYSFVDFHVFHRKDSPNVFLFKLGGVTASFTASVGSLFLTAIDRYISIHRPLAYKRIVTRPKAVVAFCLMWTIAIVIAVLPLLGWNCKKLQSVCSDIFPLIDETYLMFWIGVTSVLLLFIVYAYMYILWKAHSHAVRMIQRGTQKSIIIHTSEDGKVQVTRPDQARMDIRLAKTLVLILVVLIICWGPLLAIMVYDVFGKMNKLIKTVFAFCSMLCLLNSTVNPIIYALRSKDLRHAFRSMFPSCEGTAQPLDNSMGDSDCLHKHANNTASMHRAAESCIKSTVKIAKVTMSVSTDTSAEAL

SMILES	Ki (CB1 receptor) [µM]	Ki [1] [µM]	Fold selectivity for CB2 over CB1 [1] [fold]	pain response (time spent licking injected paw) ([2]; 20 mg/kg i.p. 30 min before formalin, listed as JWH-350)	nociception, dose dependence ([2]; i.p. 30 min before formalin)	Ki (CB2 receptor) [µM]
CC[C@@H](C)Cc1ccc2c(c1)OC(C)(C)[C@@H]1CC=C(C)C[C@@H]21 [Compound 353, 1-Deoxy-3-(2′R-methylbutyl)-Δ^8-tetrahydrocannabinol]	1.493 ± 0.01	0.0313 ± 0.00078	48			
CCCC(C)(C)c1ccc2c(c1)OC(C)(C)[C@@H]1CC[C@@H](O)C[C@@H]21 [Compound 310, 1-Deoxy-9β-hydroxy-3-(1′,1′dimethylbutyl)-11-nor-hexahydrocannabinol]	1.06	0.0361 ± 0.0028	29			
CCC[C@H](C)Cc1ccc2c(c1)OC(C)(C)[C@@H]1CC=C(C)C[C@@H]21 [Compound 255, 1-Deoxy-3-(2′S-methylpentyl)-Δ^8-tetrahydrocannabinol]	4.31 ± 0.649	0.0243 ± 0.0086	174			
CC[C@H](C)Cc1ccc2c(c1)OC(C)(C)[C@@H]1CC=C(C)C[C@@H]21 [Compound 352, 1-Deoxy-3-(2′S-methylbutyl)-Δ^8-tetrahydrocannabinol]	> 10	0.0465 ± 0.00216	213			
CCCCC(C)(C)c1cc(OC)c2c(c1)OC(C)(C)[C@@H]1CC[C@@H](O)C[C@@H]21 [Compound 299, 1-Deoxy-9β-hydroxy-1-methoxy-3-(1′,1′dimethylpentyl)-11-nor-hexahydrocannabinol]	0.415 ± 0.0498	0.0298 ± 0.00177	14			
CC[C@@H](C)Cc1cc(OC)c2c(c1)OC(C)(C)[C@@H]1CC=C(C)C[C@@H]21 [Compound 359, 1-Methoxy-3-(2′R-methylbutyl)-Δ^8-tetrahydrocannabinol]	2.92 ± 0.45	0.0133 ± 0.00015	219			
CCCCCC(C)(C)c1cc(OC)c2c(c1)OC(C)(C)[C@@H]1CC[C@@H](O)C[C@@H]21 [Compound 350, 9β-Hydroxy-1-methoxy-3-(1′,1′dimethylhexyl)-11-nor-hexahydrocannabinol]	0.395 ± 0.0198	0.0118 ± 0.00103	33	completely inhibited pain response; also recorded: completely eliminating the pain response	inhibits nociception in a dose-dependent manner	
CCCCCCC(C)(C)c1ccc2c(c1)OC(C)(C)C1CC=C(C)CC21 (stereo not drawn) [1-deoxy-Δ^8-THC-DMH]						0.003
CCCCCC(C)(C)c1cc(OC)c2c(c1)OC(C)(C)[C@@H]1CC[C@H](O)C[C@@H]21 [Compound 349, 9α-Hydroxy-1-methoxy-3-(1′,1′dimethylhexyl)-11-nor-hexahydrocannabinol]	0.3757 ± 0.0007	0.038 ± 0.0043	10			
